The record followed here is ChEMBL document CHEMBL3822406, “Synthesis and evaluation of a series of 4-azaindole-containing p21-activated kinase-1 inhibitors” (Bioorg Med Chem Lett, 2016).

The term pKi denotes the negative decadic logarithm of the Ki, by convention in mol/L. By IC50 is commonly meant the concentration that gives 50% inhibition. As usually defined, the Papp A→B is how fast a substance crosses the layer from the apical side. In general, Papp B→A refers to how fast a substance crosses the layer from the basolateral side. One may read the half-life as the time in which the quantity being followed falls by half. Lower therefore signals rapid decline. As a reminder, the clearance is the volume of plasma or blood freed of the substance per unit of time. Low values mean a low capacity for elimination, high ones a high capacity for elimination. A word on the fraction unbound: it is the share of the substance not bound to proteins or other matrix. A high value points to weak binding. In general, efflux ratio refers to the permeability from basolateral to apical divided by that in the opposite direction, in the common usage. Usually logD stands for the decadic logarithm of the distribution of all forms, ionised or not, between an organic phase and buffer at a given pH. Low values mean lower lipophilicity, high ones higher lipophilicity. By Cmax is commonly meant the highest concentration seen after dosing. As a reminder, the bioavailability is dose-corrected exposure relative to a reference, in per cent. A word on the Tmax: it is the time at which the peak concentration occurs. By pIC50 is commonly meant the IC50 on a negative log10 scale, so that one unit is a factor of ten.

Structures are written as SMILES. pIC50, pKi: −log10 of the molar value. In brackets after ≈: the same amount, converted by molar mass.

For data set [1], the target named is Serine/threonine-protein kinase PAK 1 (Homo sapiens, UniProt Q13153). Kind of data set: Inhibition of recombinant human GST-tagged PAK1 kinase domain expressed in baculovirus expression system assessed as suppression of phosphorylation of coumarin/fluorescein-labelled FRET peptide substrate at Ser/Thr19 residues preincubated with substrate for 10 mins followed by enzyme addition measured after 60 mins by Z-Lyte assay.
Sequence of Serine/threonine-protein kinase PAK 1 (Q13153 whole entry, the tested form may be a part): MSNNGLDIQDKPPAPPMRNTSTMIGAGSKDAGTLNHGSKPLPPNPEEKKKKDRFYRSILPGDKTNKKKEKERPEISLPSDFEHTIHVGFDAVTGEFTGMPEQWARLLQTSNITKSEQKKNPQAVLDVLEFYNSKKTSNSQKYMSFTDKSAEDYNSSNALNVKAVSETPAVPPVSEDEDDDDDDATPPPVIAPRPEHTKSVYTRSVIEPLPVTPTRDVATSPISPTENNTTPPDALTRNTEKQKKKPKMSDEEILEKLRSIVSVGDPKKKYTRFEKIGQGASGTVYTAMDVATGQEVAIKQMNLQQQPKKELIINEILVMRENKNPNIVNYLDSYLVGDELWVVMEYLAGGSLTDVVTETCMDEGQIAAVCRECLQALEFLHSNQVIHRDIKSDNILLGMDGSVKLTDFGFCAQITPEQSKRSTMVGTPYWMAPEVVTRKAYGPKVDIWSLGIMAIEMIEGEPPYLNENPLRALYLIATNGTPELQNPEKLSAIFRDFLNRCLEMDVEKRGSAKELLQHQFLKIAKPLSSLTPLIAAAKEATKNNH

For data set [2], the target named is Serine/threonine-protein kinase PAK 1/PAK 2/PAK 3 (Homo sapiens, UniProt O75914+Q13177+Q13153). Kind of data set: Inhibition of PAK1/2/3 in human EBC1 cells assessed as MEK1 phosphorylation level at Serine298 residue incubated for 2 hrs by HTRF assay. In kind it is cell-based.
Data set [3] deals with Hepatocyte. Kind of data set: Drug uptake in mouse hepatocytes measured at 30 secs relative to control. The format is ADME, cell-based. The conditions noted are these: 0.5 min.
Data set [4] is described as follows: Kinetic solubility at pH 7.4 by high throughput assay. The format is physicochemical. Conditions: buffer, read-out: Kinetic_solubility.
A short description of data set [5]: Apparent permeability from apical to basolateral side in MDCK cells. The format is ADME, cell-based, Canis lupus familiaris. Conditions: dog.
Data set [6] deals with MDR1 (human). The data set can be described thus: Apparent permeability from basolateral to apical side in MDCK cells expressing human MDR1. The format is ADME, cell-based, Canis lupus familiaris. The conditions noted are these: dog.
Data set [7] can be described thus: Half life in nude mouse at 2 mg/kg, iv. The format is ADME, organism-based. Conditions: in vivo.
A short description of data set [8]: Volume of distribution at steady state in nude mouse at 2 mg/kg, iv. Conditions: in vivo, read-out: Vdss. The format is ADME, organism-based.
Data set [9] deals with Mus musculus. The data set can be described thus: Unbound clearance in nude mouse at 2 mg/kg, iv. Conditions: in vivo. In kind it is ADME, organism-based.
The subject of data set [10] is MDR1 (human). Kind of data set: Apparent permeability from apical to basolateral side in MDCK cells expressing human MDR1. The format is ADME, cell-based, Canis lupus familiaris. The conditions noted are these: dog.
Data set [11] is described as follows: Plasma clearance in nude mouse at 2 mg/kg, iv. The format is ADME, organism-based.
The nature of data set [12]: Fraction unbound in mouse plasma. In kind it is ADME, cell-free.
The test system of data set [13] is MDR1 (human). The data set can be described thus: Efflux ratio of apparent permeability from basolateral to apical side over apical to basolateral side in MDCK cells expressing human MDR1. The format is ADME, cell-based, Canis lupus familiaris. The conditions noted are these: dog.
A short description of data set [14]: Lipophilicity, logD of compound at pH 7.4. In kind it is physicochemical. The conditions noted are these: buffer.
The target of data set [15] is Serine/threonine-protein kinase PAK 4 (Homo sapiens, UniProt O96013). The data set can be described thus: Inhibition of human recombinant GST-tagged PAK4 kinase domain (295 to 591 residues) expressed in baculovirus expression system assessed as suppression of phosphorylation of coumarin/fluorescein-labelled FRET peptide substrate at Ser/Thr19 residues preincubated with substrate for 10 mins followed by enzyme addition measured after 60 mins by Z-Lyte assay.
Sequence of Serine/threonine-protein kinase PAK 4 (O96013 whole entry, the tested form may be a part): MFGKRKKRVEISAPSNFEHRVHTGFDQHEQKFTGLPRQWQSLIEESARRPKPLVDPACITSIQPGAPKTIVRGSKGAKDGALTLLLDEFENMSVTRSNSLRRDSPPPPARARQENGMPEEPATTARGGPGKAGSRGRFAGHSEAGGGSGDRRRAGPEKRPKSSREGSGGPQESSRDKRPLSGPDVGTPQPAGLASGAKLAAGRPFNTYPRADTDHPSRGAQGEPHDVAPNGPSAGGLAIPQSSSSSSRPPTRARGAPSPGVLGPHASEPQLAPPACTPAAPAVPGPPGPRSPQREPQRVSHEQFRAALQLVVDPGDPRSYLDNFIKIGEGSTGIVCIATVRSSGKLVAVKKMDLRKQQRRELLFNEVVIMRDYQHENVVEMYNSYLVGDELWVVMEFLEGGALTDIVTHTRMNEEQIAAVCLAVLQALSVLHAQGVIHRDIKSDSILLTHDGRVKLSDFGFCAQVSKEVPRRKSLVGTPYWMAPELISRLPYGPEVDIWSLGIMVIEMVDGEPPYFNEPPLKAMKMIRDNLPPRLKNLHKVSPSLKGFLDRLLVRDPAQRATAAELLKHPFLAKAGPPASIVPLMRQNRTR

Data set [16] in a line: Cmax in nude mouse at 25 mg/kg, po. In kind it is ADME, organism-based. More on the design: dose 25 mg/kg, route oral. The conditions noted are these: in vivo.
Data set [17] is described as follows: Oral bioavailability in nude mouse at 25 mg/kg. The conditions noted are these: in vivo. The format is ADME, organism-based.
Data set [18] can be described thus: Tmax in nude mouse at 25 mg/kg, po. In kind it is ADME, organism-based. Conditions: in vivo.

For the molecule `CC[C@H](Nc1nccc(Nc2cc(C3CC3)[nH]n2)n1)c1ccc2[nH]ccc2n1`, the pKi in data set [1] was 7.64. Besides, the IC50 in data set [2] is 180 nM.
Regarding `O=C(O)C[C@H](O)C[C@H](O)/C=C/c1c(C2CC2)nc2ccccc2c1-c1ccc(F)cc1` [PITAVASTATIN], the “fold change (FC)” value in data set [3] is 6.6.
Regarding `C[C@H](Nc1nccc(Nc2cc(C3CC(F)(F)C3)[nH]n2)n1)c1ccc2[nH]ccc2n1`, in data set [1], the pKi is 7.17. The IC50 in data set [2] worked out at 250 nM.
Taken in the same sequence, the figures for `C[C@@H](c1ccc2[nH]ccc2n1)N(C)c1nccc(Nc2cc(C3CC3)[nH]n2)n1` were 7.74 and 240 nM.
Consider `C[C@H](Nc1nccc(Nc2cc([C@H]3C[C@@H]3F)[nH]n2)n1)c1ccc2[nH]ccc2n1`, for which the solubility kinetic in data set [4] turned out to be 104 µM (≈ 39.4 µg/mL). Also, the Papp A→B in data set [5] turned out to be 3.7 ×10⁻⁶ cm/s.
Regarding `C[C@H](Nc1nccc(Nc2cc(C3CC3)[nH]n2)n1)c1ccc2[nH]ccc2c1`, the solubility kinetic in data set [4] turned out to be 69 µM (≈ 24.8 µg/mL). In addition, in data set [6], the Papp B→A is 14.6 ×10⁻⁶ cm/s. Further, the values for the Papp A→B in [5] and in data set [10] were 2 ×10⁻⁶ cm/s and 0.5 ×10⁻⁶ cm/s, respectively. This molecule also showed a half-life in data set [7] of 19.2 min. Also, in [3], the “fold change (FC)” value is 1.8. Besides, the Vd in data set [8] stood at 4.5 L/kg. For the same molecule, in data set [9], the CL free is 20000 mL/min/kg. This molecule displayed a clearance in [11] of 160 mL/min/kg. Besides, the fraction unbound in [12] amounted to 0.008. Also, the efflux ratio in data set [13] stood at 27.7. Besides, in data set [2], the IC50 is 120 nM. Moreover, in [14], the logD turned out to be 3.7.
With `c1cc(Nc2cc(C3CC3)[nH]n2)nc(NCc2ccc3nccn3c2)n1`, the pKi in data set [1] is 6.44.
Take `C[C@H](Nc1nccc(Nc2cc(C3CC3)[nH]n2)n1)c1nc2cc[nH]c2cc1F`: the solubility kinetic in data set [4] was 58 µM (≈ 21.9 µg/mL). Besides, the Papp A→B in data set [5] came out at 8.3 ×10⁻⁶ cm/s. Further, in data set [1], the pKi is 8.40. For the same molecule, in [12], the fraction unbound is 0.014. Besides, the IC50 in data set [2] stood at 57 nM.
As to `C[C@H](Nc1nccc(Nc2cc(C3CC3)[nH]n2)n1)c1nc2cc[nH]c2cc1Cl`, the pKi in [1] was 6.92. Moreover, the IC50 in data set [2] is on record as 190 nM.
On to `C[C@H](Nc1nccc(Nc2cc(C3CC3)[nH]n2)n1)c1cc2cc[nH]c2cn1`, for which, in data set [4], the solubility kinetic is 73 µM (≈ 26.3 µg/mL). Besides, the apparent permeability from apical to basolateral (Papp A→B) in data set [5] was determined as 0.9 ×10⁻⁶ cm/s. Moreover, the fraction unbound in [12] was 0.039. In data set [2], the IC50 is listed as 68 nM.
Take `c1cc(Nc2cc(C3CC3)[nH]n2)nc(NCc2ccc3[nH]ccc3n2)n1`: the pKi is 6.92 in data set [1] and 6.30 in [15].
`C[C@H](Nc1nccc(Nc2cc(C3CC3)[nH]n2)n1)c1ccc2[nH]ccc2n1`: the solubility kinetic in [4] amounted to 133 µM (≈ 47.9 µg/mL). Also, in data set [6], the Papp B→A worked out at 9.8 ×10⁻⁶ cm/s. Also, the figures for the Papp A→B in [5] and in data set [10] were 4.3 ×10⁻⁶ cm/s and 0.2 ×10⁻⁶ cm/s, respectively. In data set [7], this molecule had a half-life of 37.8 min. For the same molecule, the highest level in data set [16] (Cmax) was 4.7 µM. This molecule also gave a bioavailability in data set [17] of 4.8%. Also, the pKi in data set [1] is 7.49. Further, the “fold change (FC)” value in data set [3] was 2.7. Also, in data set [18], the Tmax was determined as 34.8 min. For the same molecule, in [8], the Vd worked out at 1.65 L/kg. Besides, the CL free in data set [9] worked out at 1067 mL/min/kg. This molecule also returned a clearance in data set [11] of 48 mL/min/kg. Also, the fraction unbound in data set [12] was determined as 0.045. Besides, the efflux ratio in [13] amounted to 59. In data set [2], the IC50 was found to be 51 nM. Also, the logD in data set [14] came to 2.7.
With `C[n+]1ccc(-c2ccccc2)cc1`, the “fold change (FC)” value in [3] is 4.7.
With `C[C@H](Nc1nccc(Nc2cc([C@@H]3C[C@H]3F)[nH]n2)n1)c1ccc2[nH]ccc2n1`, in data set [4], the solubility kinetic came out at 73 µM (≈ 27.6 µg/mL). In addition, in data set [5], the Papp A→B is 4.2 ×10⁻⁶ cm/s. For the same molecule, the fraction unbound in [12] was found to be 0.047.
Consider `C[C@@H](Nc1nccc(Nc2cc(C3CC3)[nH]n2)n1)c1ccc2[nH]ccc2n1`, for which the pIC50 in [1] was 6.16.
Take `C[C@H](Nc1nccc(Nc2cc(C3CC3)[nH]n2)n1)c1ccc2[nH]cc(Cl)c2n1`: the pKi in data set [1] is 8.22. Moreover, in data set [2], the IC50 was 160 nM.
In the case of `CCCCNC(=O)NS(=O)(=O)c1ccc(C)cc1` [TOLBUTAMIDE], in [3], the “fold change (FC)” value was 1.4.
